Values of other authors, collected in patent publication US6689400B2, “Process of obtaining compositions of stable lutein and lutein derivatives” (Sabinsa Corporation, priority 2001, dated 2004).

Experiments:
[1] = exposure to white fluorescent light, carefully controlled conditions
[2] = room temperature or higher

degradation of lutein [1]: 0.8-10.7 % per day
stability [2]: not stable
SMILES: CC1=C[C@H](O)CC(C)(C)[C@H]1/C=C/C(C)=C/C=C/C(C)=C/C=C/C=C(C)/C=C/C=C(C)/C=C/C1=C(C)C[C@@H](O)CC1(C)C [lutein]
